From patent publication US4477451A, “5,6-Dihydro-11-methylenemorphanthridin-6-ones, their preparation and drugs containing these compounds” (BASF Aktiengesellschaft, priority 1982, dated 1984)

Test system: gastric ulcers (ulcerous mucosal lesions)
Assay: antiulcerogenic action on the rat (reserpine/indometacin/cold-induced gastric ulcers, oral test substance)
Format: in vivo, female Sprague-Dawley rats
Conditions: for ED50: Rattus norvegicus, oral, dose which reduces the ulcerous area by 50%, reserpine 1 mg/kg i.p., indometacin 21.5 mg/kg i.p., 6 hours at 8° C., read-out: Antiulcerogenic action on the rat, ED 50%; for Antiulcerogenic action on the rat, Relative activity: relative to pirenzepine = 1.0
Experimental: To investigate the antiulcerogenic action, 1 mg/kg of reserpine is administered intraperitoneally to groups of 10 female Sprague-Dawley rats each weighing 160-180 g, and the rats then remain without food for 18 hours (water ad libitum). This period is followed by intraperitoneal administration of 21.5 mg/kg of indometacin and oral administration of the test substance to the animals, which are then kept for 6 hours at 8° C., after which they are sacrificed. The stomachs are removed, and the area of ulcerous mucosal lesions is determined. The dose which reduces the ulcerous area by 50%, ie. the ED 50%, is determined from the linear regression between the logarithms of the doses administered and the relative reduction in the area of ulcerations, based on the control animals.
Pirenzepine (5,11-dihydro-11-[(4-methylpiperazin-1-yl)-acetyl]-6H-pyrido[2,3-b][1,4]benzodiazepin-6-one; German Pat. No. 1,795,183) is used as the reference substance.

Row | SMILES | ED50 | Antiulcerogenic action on the rat, Relative activity
1 | O=C(C=C1c2ccccc2NC(=O)c2ccccc21)OCCN1CCOCC1 (mixture of isomers) [Example 1, cis,trans-11-(2-Morpholin-1-yl)-ethoxycarbonylmethylene-5,6-dihydromorphanthridin-6-one] | 1.9 mg/kg | 3.4
2 | CN(C)CCOC(=O)C=C1c2ccccc2NC(=O)c2ccccc21 (mixture of isomers) [Example 2, cis,trans-11-(2-Dimethylamino)-ethoxycarbonylmethylene-5,6-dihydromorphanthridin-6-one] | 0.64 mg/kg | 10.2
3 | O=C(C=C1c2ccccc2NC(=O)c2ccccc21)OCCCN1CCOCC1 (mixture of isomers) [Example 14, cis,trans-11-(3-Morpholin-1-yl)-propoxycarbonylmethylene-5,6-dihydromorphanthridin-6-one] | 0.83 mg/kg | 7.8
4 | O=C(/C=C1/c2ccccc2NC(=O)c2ccccc21)OCCN1CCOCC1 [Example 1, cis, cis-11-(2-morpholin-1-yl)-ethoxycarbonylmethylene-5,6-dihydromorphanthridin-6-one] | 1.5 mg/kg | 4.3
5 | O=C(/C=C1\c2ccccc2NC(=O)c2ccccc21)OCCN1CCOCC1 [Example 1, trans, trans-11-(2-morpholin-1-yl)-ethoxycarbonylmethylene-5,6-dihydromorphanthridin-6-one] | 5.3 mg/kg | 1.2
6 | CN1CCN(CC(=O)N2c3ccccc3C(=O)Nc3cccnc32)CC1 [pirenzepine, 5,11-dihydro-11-[(4-methylpiperazin-1-yl)-acetyl]-6H-pyrido[2,3-b][1,4]benzodiazepin-6-one, reference compound] | 6.5 mg/kg | 
